Structures are written as SMILES. Where two headings read alike, the source gives them in different places.

In series [1] the test system is oral ulcer after bone marrow transplantation. Particulars: 28 leukemia cases with bone marrow transplantation; 150 mg LRM injected. The protocol: 28 cases of leukemia with bone marrow transplantation were recruited. 150 mg LRM was injected for prevention of catarrh.
For series [2], the system named is blood glutathione reductase activity coefficient (BGRAC).
Experiment in series [3]: not given
The source holds these as a separate data set.

The subject of series [4] is oral ulcer after chemotherapy. How it is done: 35 cases of acute lymphocytic leukemia and 13 cases of acute nonlymphocytic leukemia (6 M2 cases, 3 M3 cases, 2 M4 cases and 2 M5 cases) were also included.
Treatment: Regular chemotherapies, such as CODPL, HDMTX, DA were adopted. Other chemotherapies regimens were not listed. Tetrahydrofolate folic calcium was used to against the toxicity of HDMTX (hige-dose MTX). Hydration and alkalinizing of urine were performed in all patients by Dobll's solution. 5% NaHCO3 and 3% peroxide hydrogen were used to rinse the mouth alternatively.

The conditions of series [5]: for urinary riboflavin excretion: i.m., riboflavin-free diet.
Series [6] deals with Male wistar Rats. As to conditions: medium and high LRM injected. How it is done: 60 Wistar rats weighing 64.5±4.6 g were used in the experiment. […] The rats were weighed every 6 days. […] The blood glutathione reductase activity coefficient (BGRAC) was measured.
[7] abbreviates: day 15, medium dosage (5.01 g for 90 days per rat as printed; riboflavin group same dosage).
Setting [8] is: day 30, medium dosage (riboflavin group same dosage).
Setting [9] is: day 60, medium dosage (riboflavin group same dosage).
Where [10] appears, read: day 90, medium dosage (riboflavin group same dosage).

For the compound `CCCCCCCCCCCC(=O)OC[C@@H](O)[C@@H](O)[C@@H](O)Cn1c2nc(=O)[nH]c(=O)c-2nc2cc(C)c(C)cc21` [LRM, 5′-lauric acid monoester of riboflavin], the “cases that suffered oral ulcer” value in series [1] was 4 cases. In addition, the “share of cases that suffered oral ulcer” value in series [1] amounted to 14.3%. In addition, the food-intake result (low dosage LRM group, after 30 days) was “decreased”. Further, the weight gain result (medium and high dosage LRM groups) was “gained weight significantly”. The “gain of body weight” value (medium dosage LRM group, at the end of the experiment (FIG. 2)) is recorded as “lower than that of the high dosage LRM group”. The food intake entry reads like this: (medium dosage LRM group, in the last few days) “decreased and was lower than that of the high dosage LRM group”; (the three LRM groups (FIG. 1)) “higher than the riboflavin group and the riboflavin deficiency group”. Moreover, the “BGRAC, course and order of groups” value in series [2] (low, medium and high dosage LRM groups (FIG. 3)) is on record as “elevated, in the order as follows the low dosage LRM group>the medium dosage LRM group>the high dosage LRM group”. Further, in series [3] (high dosage LRM group (FIG. 4)), the “riboflavin content in plasma, course” value was “first elevated and then declined”. In series [3] (riboflavin group, low and medium dosage LRM groups (FIG. 4)), the “content of riboflavin in plasma, course” value is “decline”. In addition, the “Occurrence (%) of oral ulcer” value in series [4] (ALL, LRM treated before chemotherapy (150 mg i.m.)) is 0%; in series [4] (ALL, LRM treated in recent 3 months), 7.1%; in series [4] (ANLL, LRM treated before chemotherapy (150 mg i.m.)), 0%; in series [4] (ANLL, LRM treated in 3 months) it was 12.5%. The “Ulcer observed (times)” value in series [4] (ALL, LRM treated before chemotherapy (150 mg i.m.), 18 chemotherapies) stood at 0 times; in series [4] (ALL, LRM treated in recent 3 months, 42 chemotherapies), 3 times; in series [4] (ANLL, LRM treated before chemotherapy (150 mg i.m.), 8 chemotherapies), 0 times; in series [4] (ANLL, LRM treated in 3 months, 8 chemotherapies), 1 times. Besides, the “prevention of oral ulcer after chemotherapy” value in series [4] (LRM treatment prior to chemotherapy) is “could effectively prevent the occurrence of oral ulcer after chemotherapy”. Moreover, in series [4] (within 3 months after chemotherapy), the “incidence of oral ulcer” value is “could effectively decrease the incidence of oral ulcer”. In addition, in series [5] (after 15 days, riboflavin group, low and medium dosage LRM groups), the “riboflavin discharged in urine compared with riboflavin deficiency group” value is “higher than that in the riboflavin deficiency group”. Further, the urinary riboflavin excretion stood at 217.9 ± 60.2 μg per rat per day in series [5] (day 15, high dosage (double of medium)); 5.6 ± 1.3 μg per rat per day in series [5] (day 15, low dosage (half of medium)); 34.8 ± 12.2 μg per rat per day in series [5] (setting [7]); 9.8 ± 3.5 μg per rat per day in series [5] (day 30, high dosage (double of medium)); 4.1 ± 0.8 μg per rat per day in series [5] (day 30, low dosage (half of medium)); 5.0 ± 1.2 μg per rat per day in series [5] (setting [8]). Also, the urinary riboflavin excretion in series [5] (day 60, high dosage (double of medium)) is 9.9 ± 2.0 μg per rat per day; in series [5] (day 60, low dosage (half of medium)), 5.4 ± 1.3 μg per rat per day; in series [5] (setting [9]) it was 7.8 ± 1.3 μg per rat per day; in series [5] (day 90, high dosage (double of medium)), 5.9 ± 1.2 μg per rat per day; in series [5] (day 90, low dosage (half of medium)), 5.1 ± 0.9 μg per rat per day; in series [5] (setting [10]), 4.6 ± 1.1 μg per rat per day. Also, the “urinary riboflavin excretion, course over time” value in series [5] (high dosage LRM group) was “markedly increased at the 15th day and then rapidly decreased after the 30 days”. The “release of free riboflavin in the body” value in series [6] is “could slowly release free riboflavin and meet the demand of the body”.

On to `Cc1cc2nc3c(=O)[nH]c(=O)nc-3n(C[C@H](O)[C@H](O)[C@H](O)CO)c2cc1C` [Riboflavin, riboflavin, reference compound], for which the food intake result (riboflavin group (FIG. 1)) was “did not drop until 25 days later and still more than that in the riboflavin deficiency group”. Moreover, the “BGRAC, course and comparison” value in series [2] (riboflavin group, during the first 30 days (FIG. 3)) is “gradually increased and significantly higher than that in the LRM groups and lower than that in the riboflavin deficiency group”. Further, the urinary riboflavin excretion in series [5] (setting [7]) worked out at 4.0 ± 1.4 μg per rat per day; in series [5] (setting [8]) it was 7.8 ± 1.6 μg per rat per day; in series [5] (setting [9]) it was 4.5 ± 0.9 μg per rat per day; in series [5] (setting [10]), 4.2 ± 0.9 μg per rat per day.
